Target: T1, Neutrophil elastase (Homo sapiens, UniProt P08246)
T1 sequence (P08246 whole entry): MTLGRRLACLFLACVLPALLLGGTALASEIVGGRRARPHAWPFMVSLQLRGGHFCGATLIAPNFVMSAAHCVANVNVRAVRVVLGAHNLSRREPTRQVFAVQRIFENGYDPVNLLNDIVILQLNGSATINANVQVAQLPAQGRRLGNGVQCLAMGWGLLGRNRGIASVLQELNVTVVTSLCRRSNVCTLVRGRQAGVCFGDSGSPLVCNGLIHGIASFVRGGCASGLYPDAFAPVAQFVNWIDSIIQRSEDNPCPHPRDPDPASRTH
Assay: Inhibition of human neutrophil elastase

O=C(O[C@@H]1Cc2c(O)cc(O)cc2O[C@@H]1c1cc(O)c(O)c(O)c1)c1cc(O)c(O)c(O)c1 [EPIGALOCATECHIN GALLATE]
IC50: 12.8 µM

From ChEMBL document CHEMBL1153219, “Evaluation of human neutrophil elastase inhibitory effect of iridoid glycosides from Hedyotis diffusa” (Bioorg Med Chem Lett, 2010)
